According to PMC12461339, “Benzoylselenoureas: A Novel Dual-Action Inhibitor Targeting Fungal Growth and Urease Activity in Cryptococcus neoformans” (ACS Omega, 2025):
In brackets after ≈: the same amount, converted by molar mass. Several values for one entry are separate records, joined by “and”; a condition that tells them apart may be missing. Equal values may be shown once. Read-outs that look alike come from different tables or passages of the source.

Columns and labels:
C. neoformans H99 [1] = test: Broth microdilution antifungal assay (MIC) in RPMI or urea medium; format: cell-based; details: Cryptococcus neoformans
Description: (§1) C. neoformans H99 (or ATCC 208821), a standard strain, was used to evaluate the antifungal activity of BSU1-BSU11 and BTU1-BTU11 compounds using the broth microdilution method. The assay was performed in two different culture media: the standard medium RPMI 1640 buffered with […] (RMPI), and the Christensen broth (urea medium: 1 g/L peptone, 1 g/L dextrose, 5 g/L sodium chloride, 2 g/L potassium phosphate, 20 g/L urea, 12 mg/L phenol red, pH 7.0). The compounds were dissolved in dimethyl sulfoxide (DMSO) and diluted in both media, obtaining final concentrations from 0.03 to 128 mg/L in a 96-well plate and final DMSO concentration below 0.5%, considered nontoxic. For assay, yeasts were distributed in each well to obtain a final inoculum of 0.5–2.5 × 10^3 CFU/mL, and the plate was incubated at 35 °C for 48 h.
(§2) The MIC values were determined in both media and were defined as the lowest concentrations of BSU1-BSU11 and BTU1-BTU11 that inhibited 50% of fungal growth visually compared with untreated yeasts (growth control). In addition, the urease activity was indicated by medium color change from orange to pink due to ammonia production and the MICure was defined as the lowest concentration that inhibited the urease activity by visual inspection in urea medium with no color changes. For both assays, two controls were included: untreated yeast group for observation of fungal growth pattern or intracellular urease activity, and wells containing only medium for assay sterility control.

yeast urease activity = target: T1, yeast urease activity (Cryptococcus neoformans, UniProt O13465); test: Inhibition of yeast urease activity in urea (Christensen) medium, colour change (MICure); format: cell-based
T1 construct: endogenous in cells; host or cells: Cryptococcus neoformans H99 (ATCC 208821) yeasts in Christensen urea broth
T1 sequence (O13465 whole entry): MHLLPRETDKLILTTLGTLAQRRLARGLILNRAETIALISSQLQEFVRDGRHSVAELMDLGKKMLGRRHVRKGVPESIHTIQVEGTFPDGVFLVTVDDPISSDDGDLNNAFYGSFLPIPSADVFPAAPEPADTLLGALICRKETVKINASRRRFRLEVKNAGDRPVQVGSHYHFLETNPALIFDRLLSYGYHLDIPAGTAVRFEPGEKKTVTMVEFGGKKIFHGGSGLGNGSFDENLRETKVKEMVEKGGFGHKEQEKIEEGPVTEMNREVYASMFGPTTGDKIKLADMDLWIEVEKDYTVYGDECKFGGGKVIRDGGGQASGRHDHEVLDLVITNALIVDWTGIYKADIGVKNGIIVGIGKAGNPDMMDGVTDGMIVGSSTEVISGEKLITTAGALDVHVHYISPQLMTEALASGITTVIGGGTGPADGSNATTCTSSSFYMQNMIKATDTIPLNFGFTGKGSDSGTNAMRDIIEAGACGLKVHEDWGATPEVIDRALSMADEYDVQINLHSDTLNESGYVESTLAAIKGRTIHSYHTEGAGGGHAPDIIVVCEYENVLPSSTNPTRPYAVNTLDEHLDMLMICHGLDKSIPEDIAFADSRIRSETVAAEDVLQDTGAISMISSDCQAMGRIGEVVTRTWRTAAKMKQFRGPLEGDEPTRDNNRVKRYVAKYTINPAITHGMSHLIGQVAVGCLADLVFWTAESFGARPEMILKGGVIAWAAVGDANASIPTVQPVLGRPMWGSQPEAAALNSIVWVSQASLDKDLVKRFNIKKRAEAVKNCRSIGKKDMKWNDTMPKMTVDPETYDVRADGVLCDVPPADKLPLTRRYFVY
Description: The inhibitory activity against yeast urease was assessed using Christensen’s medium, which contains urea to induce URE1 gene expression. […] Even in the presence of fungal growth, inhibition of urease activity was evidenced by the absence of medium color change, indicating suppressed ammonia production.
as §1, §2

C. neoformans H99 [2] = test: Minimum fungicidal concentration by subculturing after MIC reading; format: cell-based; details: Cryptococcus neoformans
Description: After MIC readings, the MFC values were determined by subculturing, at 35 °C for 48 h, of all concentrations that inhibited the fungal growth; and then MFC was defined as the lowest concentration of the compound capable of reducing ≥99% viability of the initial fungal inoculum. ,

C. neoformans urease = target: T2, C. neoformans urease (Cryptococcus neoformans, UniProt O13465); test: Urease activity in crude protein extract, indophenol method; format: biochemical; details: ureIC50, BSU series
T2 construct: endogenous in cells; host or cells: Cryptococcus neoformans H99, lysed by sonication; dialysed and lyophilised soluble fraction (total protein)
T2 sequence (O13465 whole entry): as above
Description: C. neoformans H99 yeasts were cultivated in 100 mL of Christensen broth for 72 h at 35 °C by shaking at 200 rpm for the obtention of urease as previously described. Briefly, the yeasts were ruptured using a lysis buffer (40 mM Tris-HCl, 20 mM dithiothreitol, 4% Triton X-100, 1 mM ethylenediaminetetraacetic acid, 2 mM phenylmethylsulfonyl fluoride, protease inhibitor cocktail) and an ultrasonic sonicator. After centrifugation, the soluble fraction was dialyzed in a dialysis membrane submerged in 10 mM sodium phosphate buffer, pH 7.0; the sample was lyophilized and stored at −20 °C. Before the assay, the sample was resuspended in 1 mL of sodium phosphate buffer (10 mM, pH 7.0), and the total protein was quantified by the Bradford method.
The urease activity was determined by the indophenol method. In a 96-well microplate, 10 μL of 100 mM urea was added to 45 μL of total protein and 45 μL of BSU1-BSU11 (concentrations of 0.06–1000 μg/L) in phosphate buffer. The reaction was maintained for 10 min under shaking at 600 rpm, at room temperature. Then, 45 μL of solution A (1% phenol; 0.005% sodium nitroprusside) and 70 μL of solution B (0.5% sodium hydroxide; 0.1% sodium hypochlorite) were immediately added to the wells in the dark and incubated for 5 min at 50 °C under shaking at 600 rpm. Urease activity was quantified by measuring absorbance at 670 nm. The inhibitory concentration capable of inhibiting 50% of urease activity (ureIC50) was determined by nonlinear regression calculation using the GraphPad Prism 5.0 software.

[3] = H99, BTU series, 50% inhibition of fungal growth, RPMI medium, read-out: MIC RPMI
[4] = H99, BTU series, 50% inhibition of fungal growth, urea medium, read-out: MIC urea
[5] = H99, Table S1, RPMI medium, C. neoformans H99, read-out: MIC
[6] = H99, Table S1, urea medium, C. neoformans H99, read-out: MIC
[7] = BTU series, 100% inhibition of yeast urease activity in urea medium
[8] = Table S1, urea medium, 100% inhibition of yeast urease activity
[9] = H99, BTU series, after assay in RPMI medium, read-out: MFC
[10] = H99, Table S1, RPMI medium line, read-out: MFC
[11] = H99, Table S1, urea medium line, read-out: MFC
[12] = H99, 48 h, read-out: MIC RPMI, BSU series, 50% inhibition of fungal growth, RPMI medium, 35 °C, 48 h
[13] = H99, 48 h, read-out: MIC urea, BSU series, 50% inhibition of fungal growth, urea medium, 35 °C, 48 h
[14] = H99, Table S1, RPMI medium, C. neoformans H99
[15] = H99, Table S1, urea medium, C. neoformans H99
[16] = BSU series, 100% inhibition of yeast urease activity in urea medium
[17] = H99, BSU series, after assay in RPMI medium, ≥99% reduction of viability
[18] = H99, Table S1, RPMI medium line
[19] = H99, Table S1, urea medium line
[20] = H99, read-out: MIC RPMI, BTU series, 50% inhibition of fungal growth, RPMI medium
[21] = H99, read-out: MIC urea, BTU series, 50% inhibition of fungal growth, urea medium
[22] = H99, BTU series, after assay in RPMI medium

SMILES	MIC (C. neoformans H99 [1]; [3]) [µg/mL]	MIC (C. neoformans H99 [1]; [4]) [µg/mL]	MIC (C. neoformans H99 [1]; [5]) [µg/mL]	MIC (C. neoformans H99 [1]; [6]) [µg/mL]	MICURE (yeast urease activity; [7]) [mg/L]	MICURE (yeast urease activity; [8]) [mg/L]	MFC (C. neoformans H99 [2]; [9]) [µg/mL]	MFC (C. neoformans H99 [2]; [10]) [µg/mL]	MFC (C. neoformans H99 [2]; [11]) [µg/mL]	MIC (C. neoformans H99 [1]; [12]) [µg/mL]	MIC (C. neoformans H99 [1]; [13]) [µg/mL]	MIC (C. neoformans H99 [1]; [14]) [µg/mL]	MIC (C. neoformans H99 [1]; [15]) [µg/mL]	MICURE (yeast urease activity; [16]) [mg/L]	IC50 (C. neoformans urease)	MFC (C. neoformans H99 [2]; [17]) [µg/mL]	MFC (C. neoformans H99 [2]; [18]) [µg/mL]	MFC (C. neoformans H99 [2]; [19]) [µg/mL]	other results
O=C(NC(=S)Nc1cccc(Cl)c1)c1ccccc1 [BTU7]	> 128	4 (≈ 13.8 µM)	> 128	32 (≈ 110 µM)	<0.25	2	> 128	> 128	64 (≈ 220 µM)										
O=C(NC(=S)Nc1cccc(Br)c1)c1ccccc1 [BTU9]	> 128	32 (≈ 95.5 µM)	32 (≈ 95.5 µM)	4 (≈ 11.9 µM)	2	4	> 128	> 128	32 (≈ 95.5 µM)										
COc1cccc(NC(=[Se])NC(=O)c2ccccc2)c1 [BSU5]						0.12				1 (≈ 3 µM)	0.12 (≈ 0.36 µM)	8 (≈ 24 µM)	0.25 (≈ 0.75 µM)	0.12	14 nM	1 (≈ 3 µM)	16 (≈ 48 µM)	0.25 (≈ 0.75 µM)	
COc1ccccc1NC(=[Se])NC(=O)c1ccccc1 [BSU4]						0.25				8 (≈ 24 µM)	0.5 (≈ 1.5 µM)	16 (≈ 48 µM)	0.5 (≈ 1.5 µM)	0.5	2.33 nM and 2.34 nM	8 (≈ 24 µM)	16 (≈ 48 µM)	0.5 (≈ 1.5 µM)	
O=C(NC(=[Se])Nc1cccc(Br)c1)c1ccccc1 [BSU9]						0.12				4 (≈ 10.5 µM)	0.12 (≈ 0.314 µM)	1 (≈ 2.62 µM)	0.12 (≈ 0.314 µM)	0.06	2.31 nM and 2.3 nM	4 (≈ 10.5 µM)	1 (≈ 2.62 µM)	0.5 (≈ 1.31 µM)	
Cc1ccc(NC(=[Se])NC(=O)c2ccccc2)cc1 [BSU2]						0.5				16 (≈ 50.4 µM)	0.5 (≈ 1.58 µM)	16 (≈ 50.4 µM)	0.5 (≈ 1.58 µM)	0.5	1.07 nM	16 (≈ 50.4 µM)	16 (≈ 50.4 µM)	1 (≈ 3.15 µM)	
Cc1ccc(NC(=S)NC(=O)c2ccccc2)cc1 [BTU2]	> 128	32 (≈ 118 µM)	> 128	32 (≈ 118 µM)	<0.25	≤ 0.25	> 128	> 128	> 128										
COc1cccc(NC(=S)NC(=O)c2ccccc2)c1 [BTU5]	32 (≈ 112 µM)	4 (≈ 14 µM)	> 128	4 (≈ 14 µM)	4	≤ 0.25	> 128	> 128	> 128										
O=C(NC(=[Se])Nc1cccc(Cl)c1)c1ccccc1 [BSU7]						0.06				8 (≈ 23.7 µM)	0.25 (≈ 0.74 µM)	4 (≈ 11.8 µM)	0.12 (≈ 0.355 µM)	0.12	7.59 nM and 7.58 nM	16 (≈ 47.4 µM)	4 (≈ 11.8 µM)	0.25 (≈ 0.74 µM)	
O=C(NC(=[Se])Nc1cccc([N+](=O)[O-])c1)c1ccccc1 [BSU11]						1				32 (≈ 91.9 µM)	1 (≈ 2.87 µM)	16 (≈ 45.9 µM)	1 (≈ 2.87 µM)	1	7.91 nM and 7.93 nM	64 (≈ 184 µM)	> 16	1 (≈ 2.87 µM)	
O=C(NC(=[Se])Nc1ccc(Cl)cc1)c1ccccc1 [BSU6]						8				16 (≈ 47.4 µM)	0.5 (≈ 1.48 µM)	> 16	8 (≈ 23.7 µM)	0.25	3.02 nM	16 (≈ 47.4 µM)	> 16	16 (≈ 47.4 µM)	
CC(C)(C)c1ccc(NC(=S)NC(=O)c2ccccc2)cc1 [BTU3]	8 (≈ 25.6 µM)	1 (≈ 3.2 µM)	8 (≈ 25.6 µM)	1 (≈ 3.2 µM)	0.5	0.5	> 128	> 128	128 (≈ 410 µM)										
O=C(NC(=S)Nc1ccccc1[N+](=O)[O-])c1ccccc1 [BTU10]					>128	> 128						> 128	> 128				> 128	> 128	MIC (C. neoformans H99 [1]; [20]): > 128 µg/mL; MIC (C. neoformans H99 [1]; [21]): > 128 µg/mL; MFC (C. neoformans H99 [2]; [22]): > 128 µg/mL
O=C(NC(=S)Nc1ccc(Cl)cc1)c1ccccc1 [BTU6]	> 128	1 (≈ 3.44 µM)	> 128	32 (≈ 110 µM)	<0.25	≤ 0.25	> 128	> 128	128 (≈ 440 µM)										
O=C(NC(=S)Nc1ccccc1)c1ccccc1 [BTU1]	> 128	32 (≈ 125 µM)	> 128	32 (≈ 125 µM)	32	32	> 128	> 128	128 (≈ 499 µM)										
O=C(NC(=[Se])Nc1ccc(Br)cc1)c1ccccc1 [BSU8]						0.5				128 (≈ 335 µM)	8 (≈ 20.9 µM)	8 (≈ 20.9 µM)	0.5 (≈ 1.31 µM)	8	4.04 nM and 4.03 nM	> 128	8 (≈ 20.9 µM)	0.5 (≈ 1.31 µM)	
O=C(NC(=S)Nc1cccc([N+](=O)[O-])c1)c1ccccc1 [BTU11]					>128	> 128						> 128	> 128				> 128	> 128	MIC (C. neoformans H99 [1]; [20]): > 128 µg/mL; MIC (C. neoformans H99 [1]; [21]): > 128 µg/mL; MFC (C. neoformans H99 [2]; [22]): > 128 µg/mL
CC(C)(C)c1ccc(NC(=[Se])NC(=O)c2ccccc2)cc1 [BSU3]						16				> 128	> 128	> 16	16 (≈ 44.5 µM)		0.95 nM and 0.946 nM	> 128	> 16	> 16	
COc1ccccc1NC(=S)NC(=O)c1ccccc1 [BTU4]	> 128	64 (≈ 223 µM)	> 128	1 (≈ 3.49 µM)	32	≤ 0.25	> 128	> 128	> 128										
O=C(NC(=S)Nc1ccc(Br)cc1)c1ccccc1 [BTU8]	> 128	32 (≈ 95.5 µM)	> 128	64 (≈ 191 µM)	<0.25	32	> 128	> 128	> 128										
